Results on 3 compounds are retold here after publication PMC3985486 (Biochemistry, 2014).

In brackets after ≈: the same amount, converted by molar mass.

Experiment [1] deals with E. faecalis strain ATCC 29212. The experiment is described as follows: Broth microdilution MIC, E. faecalis. The experiment is classed as cell-based, Enterococcus faecalis. (In general: In broth dilution the organism is exposed to a series of concentrations in liquid medium.)
Experiment [2] relates to S. aureus strain ATCC 29213. The experiment is described as follows: Broth microdilution MIC, S. aureus. The experiment is classed as cell-based, Staphylococcus aureus.
The mark [3] stands for this setting: Enterococcus faecalis, ATCC29212, pH 5.8, E. faecalis 29212, pH 5.8.
Where [4] appears, read: Enterococcus faecalis, ATCC29212, pH 7, E. faecalis 29212, pH 7.
Setting [5] is: Staphylococcus aureus, ATCC29213.
Where [6] appears, read: Staphylococcus aureus, ATCC29213, pH 5.8.
[7] abbreviates: Staphylococcus aureus, ATCC29213, pH 7.

By MIC is commonly meant the least concentration at which growth counts as inhibited.

Turning to `COc1cc(Cc2cnc(N)nc2N)cc(OC)c1OC` [TMP, trimethoprim], the “increase in MIC in acidic environment” value is on record as 2–3 fold in experiment [1] (E. faecalis, acidic pH vs pH 7) and 2–3 fold in experiment [2] (S. aureus, acidic pH vs pH 7). Further, the “shift (increase) in MIC with exogenous folinic acid” value in experiment [1] (E. faecalis, folinic acid in media vs none) is on record as “up to 1 fold”. In addition, the MIC was 1 µg/mL (≈ 3.44 µM) in experiment [1] (setting [3]); 0.125 to 0.25 µg/mL (≈ 0.431 to 0.861 µM) in experiment [1] (setting [4]); 2 to 4 µg/mL (≈ 6.89 to 13.8 µM) in experiment [2] (setting [5]); 8 µg/mL (≈ 27.6 µM) in experiment [2] (setting [6]); 2 µg/mL (≈ 6.89 µM) in experiment [2] (setting [7]).

In the case of `CCC[C@H]1c2ccccc2C=NN1C(=O)/C=C/c1cc(Cc2cnc(N)nc2N)cc(OC)c1OC` (racemic) [RAB, (S,E)-3-{5-[(2,4-diaminopyrimidin-5-yl)methyl]-2,3-dimethoxyphenyl}-1-[1-propylphthalazin-2(1H)-yl]-2-propen-1-one], the MIC is 0.125 to 0.25 µg/mL (≈ 0.257 to 0.514 µM) in experiment [1] (setting [3]); 0.06 µg/mL (≈ 0.123 µM) in experiment [1] (setting [4]); 0.06 µg/mL (≈ 0.123 µM) in experiment [2] (setting [5]); 0.25 µg/mL (≈ 0.514 µM) in experiment [2] (setting [6]); 0.03 to 0.06 µg/mL (≈ 0.0617 to 0.123 µM) in experiment [2] (setting [7]).

As for `CN[C@H](CC(C)C)C(=O)N[C@H]1C(=O)N[C@@H](CC(N)=O)C(=O)N[C@H]2C(=O)N[C@H]3C(=O)N[C@H](C(=O)N[C@H](C(=O)O)c4cc(O)cc(O)c4-c4cc3ccc4O)[C@H](O)c3ccc(c(Cl)c3)Oc3cc2cc(c3O[C@@H]2O[C@H](CO)[C@@H](O)[C@H](O)[C@H]2O[C@H]2C[C@](C)(N)[C@H](O)[C@H](C)O2)Oc2ccc(cc2Cl)[C@H]1O` [VAN], the MIC in experiment [1] (E. faecalis 29212, folinic acid 0.1 μg/mL added) is 2 to 4 µg/mL; in experiment [1] (E. faecalis 29212, pH 5.8) it was 1 to 2 µg/mL; in experiment [1] (E. faecalis 29212, pH 7), 1 to 2 µg/mL; in experiment [2] (S. aureus 29213, folinic acid 0.1 μg/mL added), 1 µg/mL (≈ 0.69 µM); in experiment [2] (S. aureus 29213, pH 5.8), 1 µg/mL (≈ 0.69 µM); in experiment [2] (S. aureus 29213, pH 7), 1 µg/mL (≈ 0.69 µM).
